Data on 16 compounds can be found in PMC7153024, “New 8-Nitroquinolinone Derivative Displaying Submicromolar in Vitro Activities against Both Trypanosoma brucei and cruzi” (ACS Medicinal Chemistry Letters, 2020).

For data set [1], the system named is HepG2 cell line. Particulars: read-out: Cytotoxicity HepG2 CC50, cited from earlier work.
The subject of data set [2] is L. infantum axenic amastigotes. As to the kind of experiment: Antileishmanial activity on L. infantum axenic amastigotes. The format is cell-based, Leishmania infantum. Particulars: for Activity toward L. infantum (in words): axenic amastigotes. As for the experimental part: Experiments were performed at room temperature
The supporting electrolyte
The redox potentials measured (V/SCE) correspond […]
in a ventilated flask to transform promastigotes into axenic amastigotes. The amastigote stage was checked both by electron microscopy (short flagellum with small bulbous tip extending beyond a spherical cell body) and RT-PCR for confirming the overexpression of ATG8 and amastin genes in amastigotes, compared to promastigotes. The effects of the tested compounds on the growth of L. infantum axenic amastigotes were assessed as follows. L. infantum amastigotes were incubated at a density of 2 × 10^6 parasites/mL in sterile 96-well plates with various concentrations of compounds dissolved in DMSO (final concentration less than 0.5% v/v), in duplicate. Appropriate controls DMSO, amphotericin B, miltefosine and fexinidazole (reference drugs purchased from Sigma Aldrich) were added to each set of experiments. After a 48 h incubation period at 37 °C, each plate-well was then microscopically-examined to detect any precipitate formation. To estimate the luciferase activity of axenic amastigotes, 80 µL of each well were transferred to white 96-well plates, Steady Glow® reagent (Promega) was added according to manufacturer's instructions, and plates were incubated for 2 min. The luminescence was measured in Microbeta Luminescence Counter (PerkinElmer). Efficient […]
metabolic activity of L. infantum amastigotes compared to control. EC 50 values were calculated by non- […]
values represent the mean of three independent experiments.
Antileishmanial activity on L. donovani promastigotes NTR1 and NTR2 over-expressing strain.
Cell lines and culture conditions: The clonal Leishmania donovani cell line LdBOB (derived from MHOM/SD/62/1S-CL2D) was grown as promastigotes at 26 °C in modified M199 media, as previously described.[2] LdBOB promastigotes overexpressing NTR1 (LinJ.05.0660) and NTR2 (LinJ.12.0730) were grown in the presence of nourseothricin (100 µg/mL). To examine the effects of test compounds on growth, triplicate promastigote cultures were seeded with 5 × 10^4 parasites/mL. Parasites were grown in 10 ml cultures in the presence of drug for 72 h, after which 200 μL aliquots of each culture were added to 96-well plates, 50 μM resazurin was added to each well and fluorescence (excitation of 528

The subject of data set [3] is T. brucei brucei trypomastigotes. In words: Antitrypanosomal activity on T. brucei brucei trypomastigotes (AnTat 1.9, Alamar Blue). The class given is cell-based, Trypanosoma brucei brucei. Particulars: for Antitrypanosomal activity against T. b. brucei (in words): trypomastigotes; for Selectivity index regarding T. b. brucei: HepG2 CC50 versus T. b. brucei EC50; for EC50: Trypanosoma brucei, read-out: T. b. brucei trypomastigotes EC50. In general terms: Alamar Blue is a resazurin reagent that responds to reducing activity.

A further data set can be described thus: in vitro. The settings on record: human, Cytotoxicity HepG2 CC50.
Data set [4] in a line: Redox potentials by cyclic voltammetry in DMSO. The settings on record: 13 vs hit 2; 9, hit 1 and 2 vs pharmacophore; 10 vs 9; 5 vs 2.
Data set [5] is described as follows: PAMPA assay using a blood-brain barrier (BBB) model. The class given is in vitro ADME. Particulars: tested concentration 100 µM, pH 7.4. A general note: PAMPA measures passive passage across an artificial lipid membrane.
The test system of data set [6] is Trypanosoma brucei brucei trypomastigotes wild type. In words: T. brucei trypomastigotes, wild type strain (S427). The format is cell-based. The protocol:
Cells overexpressing NTR were
Cell densities were determined after culture for 72 h, as previously described. EC50 values were determined using GraFit as described above.
Cytotoxic evaluation on HepG2 cell line.
Briefly, cells (1 × 10^5 cells/mL) in 100
Each plate-well was then microscope-examined […]
for 2 h at 37 °C and 5% CO2. […]
added to dissolve the resulting formazan crystals. Plates were shaken vigorously (300 rpm) for 5 min.

In data set [7] the test system is HepG2 cell line. In words: Alkaline comet assay on HepG2 cells. The class given is cell-based, human. Particulars: HepG2, 1 and 10 μM, 2 or 72 h of incubation. From the text: Even though many safe nitroaromatic molecules are today on the market (for example, antiprotozoal 5-nitroimidazoles such as metronidazole, several antihypertensive dihydropyridines like nicardipine, some benzodiazepines like loprazolam, anti-Parkinson’s catechol O-methyltransferase (COMT) inhibitors like entacapone, antiandrogens like flutamide, anti-inflammatory nimesulide, immunomodulating azathioprine, anticoagulant acenocoumarol, anthelminthic niclosamide, etc.) or in clinical trials (for instance, delamanid), drugs including a nitroaromatic moiety suffer from a bad reputation as possible mutagenic or genotoxic molecules, which narrows their pharmaceutical development.[29] The Ames test is the most commonly used assay to evaluate the mutagenic potential of compounds, using Salmonella typhimurium strains. […] Thus it is accepted that the comet assay or the micronucleus assay are more pertinent methods to evaluate the genotoxic potential of nitroaromatic compounds. For example, fexinidazole is positive in the Ames test but negative in the micronucleus assay.[31] A comet assay was then performed on the HepG2 cell line with hit compound 12, using methylmethanesulfonate (MMS) as a positive control (see the Supporting Information).
Electrophoresis (with a solution which contained
28 V (resulting in 0.8 V/cm).
After staining with SYBR®
Prague Czech Republic). […] The median […]

A short description of data set [8]: In vivo pharmacokinetics in the mouse after oral administration. The settings on record: oral 25 mg/kg. The protocol: Finally, the in vivo pharmacokinetic parameters were determined in the mouse, after oral administration at 25 mg/kg in a mixture of 5% Tween 80 and 95% of 0.5% carboxymethylcellulose in water, by using the QuEChERS method.[32] Monolix Lixoft software was used to analyze the data by a noncompartmental model to fit pharmacokinetics parameters.[33] […]
acetonitrile with 0.1% formic acid. […] The […]
decrease to 2% (B); 2.6 < t < 4 min, 2% (B). Carbamazepine, oxazepam, warfarine and diclofenac are […]
The unbound fraction (fu) is […]
internal standard (propranolol 200 nM).
= 350 μL and Vplasma = 200 μL).
All animals were kept under the same
3, 6, 9, 12, and 24h after administration. Blood samples were stored frozen until required for assay.
Sample preparation for spectrometry analysis
Megazol was used like the internal standard (IS). LC-MS Optima grade Acetonitrile (ACN) and […]
sesquihydrate) were supplied by VWR.

Data set [9] relates to HepG2 cell line. Particulars: human, 72 h.
A short description of data set [10]: Tolerance in the mouse after oral administration.
On the set-up of data set [11]: method as in PMID 21200426. The settings on record: cited from earlier work.
Data set [12] relates to Salmonella typhimurium strains. The settings on record: cited from earlier work.
The subject of data set [13] is L. infantum axenic amastigotes. Particulars: previously reported pharmacophore and hit compounds; read-out: L. infantum axenic amastigote EC50; cited from earlier work.
Data set [14] has as its system T. brucei brucei trypomastigotes. Particulars: previously reported pharmacophore and hit compounds; cited from earlier work.
Setting [15] is: female, Swiss, whole blood of mouse, n = 4.

Where “and” joins values, the source holds several entries; their conditions need not be identical. Equal entries are not always repeated. Entries after “also recorded” stand apart in the source; their conditions may differ. Where two headings read alike, the source gives them in different places.

Regarding `O=c1[nH]c2c([N+](=O)[O-])cccc2cc1Cl` [A, 3-chloro-8-nitroquinolin-2(1H)-one], the 50% cytotoxic concentration (CC50) – broadly, the concentration giving 50% cytotoxicity – in the data set with HepG2 cell line [1] (3-chloro analogue A) was 85 ± 4 µM.

As for `O=c1ccc2cc(C(F)(F)F)ccc2[nH]1` [Compound 1], in [2], the “Activity toward L. infantum (in words)” value was “inactive”. The “Antitrypanosomal activity against T. b. brucei (in words)” value (“Antitrypanosomal activity” for short) in data set [3] is “inactive”.

On to `O=c1ccc2cc(C(F)(F)F)cc([N+](=O)[O-])c2[nH]1` [Compound 2], for which, in “in vitro”, the CC50 at 72 h was 28 to 41 µM. For the same compound, in data set [4], the “Shift of the E° value versus the comparator compound” value (from here on “Shift”) is given as “+0.15 V”.

As for `O=c1[nH]c2ccc(C(F)(F)F)cc2cc1Cl` [Compound 3], in data set [2], the “Activity toward L. infantum (in words)” value was “inactive”. In [3], the “Antitrypanosomal activity” value is “inactive”.

Consider `O=c1[nH]c2ccc(C(F)(F)F)cc2cc1Br` [Compound 4], for which the “Activity toward L. infantum (in words)” value in data set [2] was “inactive”. In addition, the “Antitrypanosomal activity” value in [3] is “inactive”.

Take `COc1ccc2cc(C(F)(F)F)cc([N+](=O)[O-])c2n1` [Compound 5]: the “Activity toward L. infantum (in words)” value in data set [2] was “inactive”. Besides, the “Shift” value in data set [4] was −0.36 V.

On to `O=c1[nH]c2c([N+](=O)[O-])cc(C(F)(F)F)cc2cc1Br` [Compound 7], for which, in data set [2] (regarding L. infantum, HepG2), the “Selectivity index (antileishmanial)” value is above 10. Moreover, the “Selectivity index regarding T. b. brucei” value in data set [3] is above 200. For the same compound, the “BBB PAMPA assay Pe” value in data set [5] is 45.03 ×10⁻⁶ cm/s and 45.03 ± 17.05 ×10⁻⁶ cm/s.

For `Nc1cc(C(F)(F)F)cc2cc(Br)c(=O)[nH]c12` [Compound 8], the “Activity toward L. infantum (in words)” value in data set [2] is “inactive”.

For `O=c1ccc2cc(Br)cc([N+](=O)[O-])c2[nH]1` [Compound 9], the “Selectivity index regarding T. b. brucei” value in data set [3] is listed as above 200. Besides, in [3] (T. b. brucei trypomastigotes), the “Times more active than 3-bromo-position isomer (hit 1)” value was 27 and the “Times more active than the 8-nitroquinolin-2(1H)-one pharmacophore” value is on record as 334. Further, the half-maximal cytotoxic concentration (CC50) at 72 h in “in vitro” was in the range of 28 to 41 µM. In data set [4], the “Shift” value is given as “+0.14 V”.

Consider `O=c1[nH]c2c([N+](=O)[O-])cc(Br)cc2cc1Br` [Compound 10], for which, in data set [3], the “Selectivity index regarding T. b. brucei” value is listed as above 200 and the EC50 (in general, the concentration at which the effect is half-maximal) lay in the range of 0.012 to 0.05 µM. Also, the half-maximal cytotoxic concentration (CC50) at 72 h in the data set “in vitro” came out at 17 µM. For the same compound, in data set [4], the “Shift” value is “+0.03 V”.

Turning to `O=c1[nH]c2c([N+](=O)[O-])cc(Cl)cc2cc1Cl` [Compound 11], the “Selectivity index regarding T. b. brucei” value in data set [3] is above 200.

For `O=c1[nH]c2c([N+](=O)[O-])cc(Br)cc2cc1Cl` [Compound 12], the “Times more active than 3-chloro-analogue A” value in [3] (T. b. brucei trypomastigotes) is 100. Besides, the 50% effective concentration (EC50) in data set [3] lay in the range of 0.012 to 0.05 µM. The “Activity compared with nifurtimox against T. b. brucei” value in data set [6] was “six times more active than nifurtimox”. In addition, the “BBB PAMPA assay Pe” value in [5] is 40.51 ×10⁻⁶ cm/s and 40.51 ± 6.93 ×10⁻⁶ cm/s. The “Comet assay (genotoxicity)” value in the data set with HepG2 cell line [7] was “not genotoxic; also recorded: lack of genotoxicity; also recorded: Negative”. Also, the half-life (commonly the time needed for the level to fall by half in the phase considered) at 24 h in data set [8] (female, Swiss, plasma, mouse, read-out: Plasmatic half life (converted)) was 2.9 h. Moreover, in data set [8] (setting [15]), the AUC(0-inf) – broadly, total exposure, with the tail of the curve extrapolated – came out at 123 µg·h/mL; the peak level (Cmax) was 17400 ng/mL; the Tmax – broadly, the time from dosing to the highest level – was 1.5 h; the half-life was 2.87 h. Further, the Clairance in data set [8] (whole blood of mouse, n = 4) was 0,00768 mL/h. Besides, in the data set on HepG2 cell line [9], the “Times more cytotoxic than reference drugs” value was “about 10”. The “Tolerance, repeated dose” value in data set [10] (25 mg/kg once daily for 5 days) is reported as “well tolerated without any adverse effect noted”. Also, in data set [10] (kidney, liver, brain, heart, lung), the “Organ lesions after euthanasia” value is on record as “no lesions were found”. For the same compound, in data set [10] (once daily oral dose at 25 or 50 mg/kg), the “Tolerance, oral dose” value is “well tolerated”.

Turning to `COc1cccc2c1C(=O)c1c(O)c3c(c(O)c1C2=O)C[C@@](O)(C(=O)CO)C[C@@H]3O[C@H]1C[C@H](N)[C@H](O)[C@H](C)O1` [Doxorubicin, reference compound], the midpoint of cytotoxicity with HepG2 cell line [9], the CC50, lay at 0.2 ± 0.02 µM.

Consider `CSc1ccc(OCc2ncc([N+](=O)[O-])n2C)cc1` [Fexinidazole], for which, in [11], the Micronucleus assay result is on record as “negative”. Also, the Ames test entry in [12] is recorded as “positive”.

Consider `O=c1[nH]c2c([N+](=O)[O-])cccc2cc1Br` [Hit 1], for which the 50% effective concentration (EC50) in data set [13] is 7.1 ± 1.5 µM; in data set [14], 1.9 ± 0.4 µM. Further, the CC50 with HepG2 cell line [1] (previously reported pharmacophore and hit compounds) was 92 ± 13 µM. Also, the “Shift” value in [4] was “+0.09 V”.

For the compound `O=C(O)c1ccc(-c2cc3cccc([N+](=O)[O-])c3[nH]c2=O)cc1` [Hit 2], the EC50 in data set [13] was above 100 µM.
